From ChEMBL document CHEMBL3745645, “Synthesis, in vitro antitumor activity, dihydrofolate reductase inhibition, DNA intercalation and structure-activity relationship studies of 1,3,5-triazine analogues” (Bioorg Med Chem Lett, 2016)
The source made the active and inactive calls. The rule behind the calls is not given here.

Key:
Calf thymus DNA = assay: Binding affinity to calf thymus DNA at 25 uM by UV-vis spectrometric analysis; assay type: nucleic-acid assay; details: Bos taurus
CAKI-1 = assay: Cytotoxicity against human Caki1 cells at 10 uM after 48 hrs by SRB assay; assay type: functional
UO-31 = assay: Cytotoxicity against human UO31 cells at 10 uM after 48 hrs by SRB assay; assay type: functional
DU-145 = assay: Cytotoxicity against human DU145 cells at 10 uM after 48 hrs by SRB assay; assay type: functional
MOLT-4 = assay: Cytotoxicity against human MOLT4 cells at 10 uM after 48 hrs by SRB assay; assay type: functional
HOP-62 = assay: Cytotoxicity against human HOP62 cells at 10 uM after 48 hrs by SRB assay; assay type: functional
HOP-92 = assay: Cytotoxicity against human HOP92 cells at 10 uM after 48 hrs by SRB assay; assay type: functional
COLO 205 = assay: Cytotoxicity against human COLO205 cells at 10 uM after 48 hrs by SRB assay; assay type: functional
SW-620 = assay: Cytotoxicity against human SW620 cells at 10 uM after 48 hrs by SRB assay; assay type: functional
SF-268 = assay: Cytotoxicity against human SF268 cells at 10 uM after 48 hrs by SRB assay; assay type: functional
SNB-75 = assay: Cytotoxicity against human SNB75 cells at 10 uM after 48 hrs by SRB assay; assay type: functional
LOX IMVI = assay: Cytotoxicity against human LOXIMVI cells at 10 uM after 48 hrs by SRB assay; assay type: functional
IGROV-1 = assay: Cytotoxicity against human IGROV1 cells at 10 uM after 48 hrs by SRB assay; assay type: functional
OVCAR-5 = assay: Cytotoxicity against human OVCAR5 cells at 10 uM after 48 hrs by SRB assay; assay type: functional
OVCAR-8 = assay: Cytotoxicity against human OVCAR8 cells at 10 uM after 48 hrs by SRB assay; assay type: functional
NCI/ADR-RES = assay: Cytotoxicity against human NCI-ADR-RES cells at 10 uM after 48 hrs by SRB assay; assay type: functional
SK-OV-3 = assay: Cytotoxicity against human SKOV3 cells at 10 uM after 48 hrs by SRB assay; assay type: functional
[1] = Cytotoxicity against human HL-60(TB) cells at 10 uM after 48 hrs by SRB assay; assay type: functional; details: HL-60, 48 h, read-out: GI
Hs-578T = assay: Cytotoxicity against human Hs 578T cells at 10 uM after 48 hrs by SRB assay; assay type: functional

Compound: Cc1nc2ccc(Nc3nc(NCCN4CCOCC4)nc(Nc4ccc(F)cc4)n3)cc2n1Cc1ccccc1
- Activity (Calf thymus DNA): Active

Compound: Cc1nc2cc(Nc3nc(Nc4ccc(F)cc4)nc(N4CCCC4)n3)ccc2n1Cc1ccccc1
- growth inhibition (GI) (CAKI-1): Active
- growth inhibition (GI) (UO-31): Active
- growth inhibition (GI) (DU-145): Active
- growth inhibition (GI) (MOLT-4): Active
- growth inhibition (GI) (HOP-62): Active
- growth inhibition (GI) (HOP-92): Active
- growth inhibition (GI) (COLO 205): Active
- growth inhibition (GI) (SW-620): Active
- growth inhibition (GI) (SF-268): Active
- growth inhibition (GI) (SNB-75): Active
- growth inhibition (GI) (LOX IMVI): Active
- growth inhibition (GI) (IGROV-1): Active
- growth inhibition (GI) (OVCAR-5): Active
- growth inhibition (GI) (OVCAR-8): Active
- growth inhibition (GI) (NCI/ADR-RES): Active
- growth inhibition (GI) (SK-OV-3): Active

Compound: COc1ccc(-c2nc(Nc3ccc(F)cc3)nc(Nc3ccc4c(c3)nc(C)n4Cc3ccccc3)n2)cc1
- growth inhibition (GI) (MOLT-4): Active

Compound: Cc1nc2cc(Nc3nc(Nc4ccc(F)cc4)nc(-c4cccs4)n3)ccc2n1Cc1ccccc1
- inhibition of growth at 10 µM [1]: 71.9%

Compound: Cc1nc2cc(Nc3nc(Nc4ccc(F)cc4)nc(N4CCN(C)CC4)n3)ccc2n1Cc1ccccc1
- growth inhibition (GI) (UO-31): Active
- growth inhibition (GI) (Hs-578T): Active
- growth inhibition (GI) (COLO 205): Active
- growth inhibition (GI) (SNB-75): Active
- growth inhibition (GI) (LOX IMVI): Active

Compound: Cc1nc2ccc(Nc3nc(Cl)nc(Nc4ccc(F)cc4)n3)cc2n1Cc1ccccc1
- growth inhibition (GI) (OVCAR-5): inactive
